Experimental findings from paper PMC11562385 (RSC Chemical Biology, 2024) are described below.

As a reminder, the EC50 is the concentration needed to bring the measured effect to its halfway point.

Each structure is given as a SMILES string. Square brackets hold non-standard residues; d marks the D form. Peptide text beside a SMILES is read from it. * marks the point of attachment. Dab = NCC[C@H](N)C(=O)O; Dap = NC[C@H](N)C(=O)O; Acryloyl = C=CC(=O)*

In one assay the target is T1, PD1:PDL1 interaction (Homo sapiens, UniProt Q15116).
T1 construct: purchased BPS Bioscience 72005
T1 sequence (Q15116 25-167 limits assumed): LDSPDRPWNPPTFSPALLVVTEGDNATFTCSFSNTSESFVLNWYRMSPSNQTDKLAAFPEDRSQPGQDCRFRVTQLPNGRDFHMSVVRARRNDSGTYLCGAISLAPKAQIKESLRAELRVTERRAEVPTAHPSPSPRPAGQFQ
The experiment in a line: PD1/PDL1 immunoblocking ELISA (BPS Bioscience kit cat # 72005). Format: binding.
Settings: not given
The method, then:
Original loops with Phe/Trp and their Gly-derived analogs. Experimental EC50 values from inhibitory dose–response curves. Error bars indicate the mean ± SD, (n = 3). […]
SDS -Pages, buffers, and stain were purchased from Fisher
8. Immunoblocking ELISA Assay
Peptide inhibitor stock solutions were prepared in the concentration range of approximately 1-5 mM in DMSO. […]
plate was then washed and blocked with blocking buffer for 1 h at room temperature. Inhibitor solutions (ranging from 0.01 to 100 μM) and a blank solution (DMSO/PBS buffer) were added to designated wells. To initiate the […]
inhibitor solutions. After a 2 h incubation at room temperature, the plate was washed and blocked again for 10 min. Streptavidin-HRP (diluted at 1 : 1000) was added and incubated for 1 h at room temperature with gentle shaking. The plate was washed and blocked once more for 10 min. ELISA ECL substrate was added, and the resulting chemoluminescence was immediately measured in a luminometer (FLUOstar OPTIMA, BMG Labtech).
The luminescence value of the blank was subtracted from all readings according to the manufacturer's
(In general: An ELISA detects its analyte on a solid surface through an enzyme-linked reagent.)
For the compound `CSCC[C@H](NC(=O)CNC(=O)[C@H](CCC(=O)O)NC(=O)[C@H](CCCNC(=N)N)NC(=O)[C@H](C)NC(=O)[C@@H](NC(=O)[C@H](Cc1c[nH]c2ccccc12)NC(=O)[C@@H](N)CCCNC(=N)N)C(C)C)C(=O)N[C@@H](CC(N)=O)C(=O)N[C@H](C(=O)N[C@@H](CC(=O)O)C(=O)NCC(=O)N[C@@H](Cc1ccc(O)cc1)C(=O)N[C@@H](Cc1ccccc1)C(=O)N[C@@H](CC(=O)O)C(=O)N[C@@H](Cc1ccc(O)cc1)C(=O)N[C@@H](Cc1c[nH]c2ccccc12)C(=O)N[C@@H](Cc1cnc[nH]1)C(=O)N[C@@H](Cc1c[nH]c2ccccc12)C(=O)N[C@@H](CCC(=O)O)C(=O)O)[C@@H](C)O` [2o] (H-RWVAREGMNTDGYFDYWHWE-OH), the midpoint of the response, the EC50, lay at 349 nM.

Staying with this assay, now noted: ELISA, mean of three independent experiments; read-out: EC50 Value.
On to `CSCC[C@H](NC(=O)[C@H](CC(=O)O)NC(=O)[C@H](Cc1ccccc1)NC(=O)[C@H](CCCNC(=N)N)NC(=O)[C@H](Cc1ccc(O)cc1)NC(=O)[C@H](CC(=O)O)NC(=O)[C@H](CCCNC(=N)N)NC(=O)[C@H](CCCNC(=N)N)NC(=O)[C@H](C)NC(=O)[C@@H](NC(=O)[C@H](Cc1c[nH]c2ccccc12)NC(=O)[C@@H](N)CCCNC(=N)N)C(C)C)C(=O)NCC(=O)N[C@@H](Cc1ccccc1)C(=O)N[C@@H](CC(N)=O)C(=O)N[C@@H](Cc1ccc(O)cc1)C(=O)N[C@@H](Cc1c[nH]c2ccccc12)C(=O)N[C@H](C(=O)N[C@@H](Cc1c[nH]c2ccccc12)C(=O)N[C@@H](CCC(=O)O)C(=O)O)C(C)C` [2k] (H-RWVARRDYRFDMGFNYWVWE-OH), for which the half-maximal effective concentration (EC50) stood at 170 nM.
The same measure, in the same setting: the figure for `CC(C)C[C@H](NC(=O)[C@H](CCC(N)=O)NC(=O)[C@H](CCCNC(=N)N)NC(=O)[C@H](C)NC(=O)[C@@H](NC(=O)[C@H](Cc1c[nH]c2ccccc12)NC(=O)[C@@H](N)CCCNC(=N)N)C(C)C)C(=O)N[C@@H](Cc1ccc(O)cc1)C(=O)N[C@@H](Cc1ccc(O)cc1)C(=O)N[C@@H](Cc1ccccc1)C(=O)N[C@@H](CC(=O)O)C(=O)N[C@@H](Cc1ccc(O)cc1)C(=O)N[C@@H](Cc1c[nH]c2ccccc12)C(=O)N[C@H](C(=O)N[C@@H](Cc1c[nH]c2ccccc12)C(=O)N[C@@H](CCC(=O)O)C(=O)O)C(C)C` [2m] (H-RWVARQLYYFDYWVWE-OH) is 144 nM; for `CSCC[C@H](NC(=O)CNC(=O)[C@H](CCC(=O)O)NC(=O)[C@H](CCCNC(=N)N)NC(=O)[C@H](C)NC(=O)[C@@H](NC(=O)[C@H](Cc1c[nH]c2ccccc12)NC(=O)[C@@H](N)CCCNC(=N)N)C(C)C)C(=O)N[C@@H](CC(N)=O)C(=O)N[C@H](C(=O)N[C@@H](CC(=O)O)C(=O)N[C@@H](Cc1c[nH]c2ccccc12)C(=O)N[C@@H](Cc1ccc(O)cc1)C(=O)N[C@@H](Cc1ccccc1)C(=O)N[C@@H](CC(=O)O)C(=O)N[C@@H](Cc1ccc(O)cc1)C(=O)N[C@@H](Cc1c[nH]c2ccccc12)C(=O)N[C@@H](Cc1cnc[nH]1)C(=O)N[C@@H](Cc1c[nH]c2ccccc12)C(=O)N[C@@H](CCC(=O)O)C(=O)O)[C@@H](C)O` [2n] (H-RWVAREGMNTDWYFDYWHWE-OH) it is 252 nM.
For the compound `C=CC(=O)NCC[C@H](NC(=O)CNC(=O)[C@H](CC(=O)O)NC(=O)[C@@H](NC(=O)[C@H](CC(N)=O)NC(=O)[C@H](CCSC)NC(=O)CNC(=O)[C@H](CCC(=O)O)NC(=O)[C@H](CCCNC(=N)N)NC(=O)[C@H](C)NC(=O)[C@@H](NC(=O)[C@H](Cc1c[nH]c2ccccc12)NC(=O)[C@@H](N)CCCNC(=N)N)C(C)C)[C@@H](C)O)C(=O)N[C@@H](Cc1ccccc1)C(=O)N[C@@H](CC(N)=O)C(=O)N[C@@H](Cc1ccc(O)cc1)C(=O)N[C@@H](Cc1c[nH]c2ccccc12)C(=O)N[C@H](C(=O)N[C@@H](Cc1c[nH]c2ccccc12)C(=O)N[C@@H](CCC(=O)O)C(=O)O)C(C)C` [2pa] (H-RWVAREGMNTDG[Dab](Acryloyl)FNYWVWE-OH), the concentration giving a half-maximal response (EC50) turned out to be 950 nM.
Turning to `C=CC(=O)NC[C@H](NC(=O)CNC(=O)[C@H](CC(=O)O)NC(=O)[C@@H](NC(=O)[C@H](CC(N)=O)NC(=O)[C@H](CCSC)NC(=O)CNC(=O)[C@H](CCC(=O)O)NC(=O)[C@H](CCCNC(=N)N)NC(=O)[C@H](C)NC(=O)[C@@H](NC(=O)[C@H](Cc1c[nH]c2ccccc12)NC(=O)[C@@H](N)CCCNC(=N)N)C(C)C)[C@@H](C)O)C(=O)N[C@@H](Cc1ccccc1)C(=O)N[C@@H](CC(N)=O)C(=O)N[C@@H](Cc1ccc(O)cc1)C(=O)N[C@@H](Cc1c[nH]c2ccccc12)C(=O)N[C@H](C(=O)N[C@@H](Cc1c[nH]c2ccccc12)C(=O)N[C@@H](CCC(=O)O)C(=O)O)C(C)C` [2pb] (H-RWVAREGMNTDG[Dap](Acryloyl)FNYWVWE-OH), the EC50 was found to be 3040 nM.
As for `CC[C@H](C)[C@H](NC(=O)[C@H](Cc1ccc(O)cc1)NC(=O)[C@H](Cc1c[nH]c2ccccc12)NC(=O)[C@H](Cc1ccc(O)cc1)NC(=O)[C@H](CC(N)=O)NC(=O)CNC(=O)[C@H](Cc1ccc(O)cc1)NC(=O)[C@H](C)NC(=O)[C@H](CCCNC(=N)N)NC(=O)[C@H](C)NC(=O)[C@@H](NC(=O)[C@H](Cc1c[nH]c2ccccc12)NC(=O)[C@@H](N)CCCNC(=N)N)C(C)C)C(=O)N[C@@H](CC(=O)O)C(=O)N[C@H](C(=O)N[C@@H](Cc1c[nH]c2ccccc12)C(=O)N[C@@H](Cc1cnc[nH]1)C(=O)N[C@@H](Cc1c[nH]c2ccccc12)C(=O)N[C@@H](CCC(=O)O)C(=O)O)C(C)C` [2q] (H-RWVARAYGNYWYIDVWHWE-OH), the 50% effective concentration (EC50) is 230 nM.
Regarding `CC[C@H](C)[C@H](NC(=O)[C@H](Cc1ccc(O)cc1)NC(=O)CNC(=O)[C@H](Cc1ccc(O)cc1)NC(=O)[C@H](CC(N)=O)NC(=O)CNC(=O)[C@H](Cc1ccc(O)cc1)NC(=O)[C@H](C)NC(=O)[C@H](CCCNC(=N)N)NC(=O)[C@H](C)NC(=O)[C@@H](NC(=O)[C@H](Cc1c[nH]c2ccccc12)NC(=O)[C@@H](N)CCCNC(=N)N)C(C)C)C(=O)N[C@@H](CC(=O)O)C(=O)N[C@H](C(=O)N[C@@H](Cc1c[nH]c2ccccc12)C(=O)N[C@@H](Cc1cnc[nH]1)C(=O)N[C@@H](Cc1c[nH]c2ccccc12)C(=O)N[C@@H](CCC(=O)O)C(=O)O)C(C)C` [2r] (H-RWVARAYGNYGYIDVWHWE-OH), the EC50 came to 170 nM.
